Test system: 996289-038-R-J1-PDC spheroid viability
Assay: Anticancer human tumor 996289-038-R-J1-PDC patient-derived colon adenocarcinoma cell line growth inhibition [PI3K]
Settings: spheroids with HUVEC and MSC; for IC50: curve of first compound; for viability, T/C: stronger effect = lower value
Source text: Combinatorial screen of targeted agents with the PI3K inhibitors inavolisib, alpelisib, duvelisib, and copanlisib in multi-cell type tumor spheroids
A high-throughput screen of multi-cell type tumor spheroids was designed to identify active combinations of targeted small molecules and PI3K pathway inhibitors. Complex spheroids include a stromal component modeled by human endothelial cells (HUVEC) and fibroblasts modeled by human mesenchymal stem cells (MSCs). The concentration ranges selected for each drug and investigational agent were based upon clinically achievable concentrations if the clinical Cmax of the agent was known.
Compounds. The drugs and investigational agents: inavolisib (NSC800729), alpelisib (NSC765974), duvelisib (NSC772469), copanlisib (NSC816437), ipatasertib (NSC767898), afuresertib (NSC778305), talazoparib (NSC767125), sapanisertib (NSC764658), selumetinib (NSC741078), tovorafenib (DAY101, NSC766906), vemurafenib (NSC761431), ravoxertinib (NSC781343), sotorasib (NSC818433), MRTX1133 (NSC 836407), abemaciclib (NSC 768073), palbociclib (NSC758247), venetoclax (NSC 766270), SY5609 (NSC837396), enzalutamide (NSC755605), and darolutamide (NSC825331), were obtained from the National Cancer Institute (NCI) Developmental Therapeutics Program Chemical Repository. The FDA-approved anticancer drug set is available from the NCI Developmental Therapeutics Program. […] The stock solutions were prepared in dimethyl sulfoxide (DMSO, Sigma-Aldrich, St. Louis, MO, cat. D2650) at 800-fold the tested concentration and stored at -70 degrees C prior to their use. All drugs and investigational agents were tested over a range starting from a high concentration at or near the clinical Cmax and decreasing in half-log increments. If the clinical Cmax for an agent had not been determined, the highest concentration tested was 10 microM.
Cell Culture. All cells were maintained in an incubator at 37 degrees C and 5% CO2 with 95% humidity. The PDC lines were cultured according to standard operating procedures established by the NCI PDMR (https://pdmr.cancer.gov/sops/default.htm). All PDCs were thawed and cultured in Matrigel-coated flasks prepared with a working solution of 1X Ham's F-12 nutrient mix, without supplementation (Invitrogen, Waltham, MA, cat. 11765054), 100 U/mL penicillin-streptomycin (Invitrogen, cat. 15140122), and 2.5% Matrigel (Corning Inc., Corning, NY, cat. 354248) for the first three passages. The 354836-022-R-J1-PDC, 475296-252-R-J1-PDC, and 997726-040-R-J2-PDC lines were cultured in 6A media, which includes advanced DMEM/F-12 (Thermo Fisher Scientific, cat. 12634028), 10 mM HEPES (Thermo Fisher Scientific, cat. 15630080), 1X GlutaMAX supplement (Thermo Fisher Scientific, cat. 35050061), 0.1 mg/mL primocin (InvivoGen, San Diego, CA, cat. ant-pm-2), 10% defined fetal bovine serum, heat inactivated (HyClone Laboratories Inc., Logan, UT, cat. SH30070.03HI), 50% L-WRN conditioned media (ATCC, cat. CRL-3276), 1.25 mM N-Acetyl-L-cysteine (Sigma-Aldrich, cat. A9165), 10 mM nicotinamide (Sigma-Aldrich, cat. N0636), 1X B-27 supplement (Thermo Fisher Scientific, cat. 17504044), 1X N-2 supplement (Thermo Fisher Scientific, cat. 17502048), and 10 microM Y-27632 dihydrochloride (Tocris Bioscience, Bristol, United Kingdom, cat. 1254). The 624824-186-R-J2-PDC line was cultured in 6C/Colon 1B media, which includes all 6A media components plus 50 ng/mL human EGF recombinant protein (Thermo Fisher Scientific, cat. PHG0311). […]
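Note: spheroids exposed to compounds for seven days before viability read.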
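Throughout, for viability, T/C: luminescence used as a proxy for viable cell amount; percent viability relative to DMSO vehicle control as 100%.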

What does the source list for `CC(=O)c1c(C)c2cnc(Nc3ccc(N4CCNCC4)cn3)nc2n(C2CCCC2)c1=O` + CC(Nc1ccc2c(c1)OCCn1cc(N3C(=O)OCC3C(F)F)nc1-2)C(N)=O?
IC50 (second compound 0.00316 µM): > 100 nM; IC50 (second compound 0.01 µM): > 100 nM; IC50 (second compound 0.0316 µM): > 100 nM; IC50 (second compound 0.1 µM): > 100 nM; IC50 (second compound 0.316 µM): > 100 nM; IC50 (second compound 1 µM): 79.6 nM; viability, T/C (second compound 0.00316 µM, first compound 0.000316 µM): 89.9%; viability, T/C (second compound 0.00316 µM, first compound 0.001 µM): 106%; viability, T/C (second compound 0.00316 µM, first compound 0.00316 µM): 103%; viability, T/C (second compound 0.00316 µM, first compound 0.01 µM): 93.9%; viability, T/C (second compound 0.00316 µM, first compound 0.0316 µM): 96.5%; viability, T/C (second compound 0.00316 µM, first compound 0.1 µM): 93.3%; viability, T/C (second compound 0.01 µM, first compound 0.000316 µM): 105%; viability, T/C (second compound 0.01 µM, first compound 0.001 µM): 90.5%; viability, T/C (second compound 0.01 µM, first compound 0.00316 µM): 101%; viability, T/C (second compound 0.01 µM, first compound 0.01 µM): 96.4%; viability, T/C (second compound 0.01 µM, first compound 0.0316 µM): 96.7%; viability, T/C (second compound 0.01 µM, first compound 0.1 µM): 92%; viability, T/C (second compound 0.0316 µM, first compound 0.000316 µM): 101%; viability, T/C (second compound 0.0316 µM, first compound 0.001 µM): 85.3%; viability, T/C (second compound 0.0316 µM, first compound 0.00316 µM): 95.8%; viability, T/C (second compound 0.0316 µM, first compound 0.01 µM): 87.5%; viability, T/C (second compound 0.0316 µM, first compound 0.0316 µM): 92.8%; viability, T/C (second compound 0.0316 µM, first compound 0.1 µM): 81.2%; viability, T/C (second compound 0.1 µM, first compound 0.000316 µM): 82.2%; viability, T/C (second compound 0.1 µM, first compound 0.001 µM): 70%; viability, T/C (second compound 0.1 µM, first compound 0.00316 µM): 85.3%; viability, T/C (second compound 0.1 µM, first compound 0.01 µM): 92.5%; viability, T/C (second compound 0.1 µM, first compound 0.0316 µM): 87.8%; viability, T/C (second compound 0.1 µM, first compound 0.1 µM): 76.5%; viability, T/C (second compound 0.316 µM, first compound 0.000316 µM): 73%; viability, T/C (second compound 0.316 µM, first compound 0.001 µM): 81.6%; viability, T/C (second compound 0.316 µM, first compound 0.00316 µM): 63.4%; viability, T/C (second compound 0.316 µM, first compound 0.01 µM): 64.8%; viability, T/C (second compound 0.316 µM, first compound 0.0316 µM): 70.9%; viability, T/C (second compound 0.316 µM, first compound 0.1 µM): 68.8%; viability, T/C (second compound 1 µM, first compound 0.000316 µM): 58.7%; viability, T/C (second compound 1 µM, first compound 0.001 µM): 72.5%; viability, T/C (second compound 1 µM, first compound 0.00316 µM): 58.9%; viability, T/C (second compound 1 µM, first compound 0.01 µM): 57.7%; viability, T/C (second compound 1 µM, first compound 0.0316 µM): 57.8%; viability, T/C (second compound 1 µM, first compound 0.1 µM): 48.2%

From PubChem BioAssay AID1963965 (Molecular Pharmacology Branch, DTP, NCI, 2024)
